Results on one compound are retold here after PMC11305387, “AlphaFold accelerated discovery of psychotropic agonists targeting the trace amine–associated receptor 1” (Science Advances, 2024).

Structures are written as SMILES. ≈ marks a conversion by molar mass, not a printed value.

The target of one series is T1, D2 receptor (Homo sapiens, UniProt P14416).
T1 construct: TANGO fusion module (own knowledge, Kroeze et al.: C-terminal V2 tail, TEV site and tTA); 1000000068; host or cells: HTLA (HEK293-derived)
Nature of the series: cell-based. Type of series: cell-based. As to the method:
(§1) Assessment of receptor activation by compounds at all human aminergic receptors were carried out using a modified version of the PRESTO-TANGO method. […] The plate was spun down, and 5 μl of a 1:25 dilution (in DPBS) of polyethylenimine (PEI) derivative (Transporter 5, Polysciences) was added (1:4 cDNA to PEI ratio) and incubated for 20 min at room temperature (RT). […] Luminescence signal was detected using a plate-reader (SPARK, Tecan) with 100-ms integration time and a 100-ms delay between well reads.

Series [1] in a line: Metabolic stability in liver microsomes. The following applies: human liver microsomes, 1 μM.
The nature of a further series: Thermodynamic solubility. Type of series: physicochemical. The settings on record: 100 mM potassium phosphate buffer, aqueous buffer, thermodynamic from solid, 100 mM KPO4-buffer pH 7.4, 37°C. The procedure: Thermodynamic solubility assay used solid form of compound 65. Solid test compound (~2 to 3 mg) was weighed in a glass high-performance liquid chromatography (HPLC) vial, and 100 mM KPO4-buffer (pH 7.4) was added to give a theoretical max concentration if everything is dissolved of ~5 to 6 mg/ml. The vial was incubated at 900 rpm and 37°C in a rotational shaker for 24 hours. After the incubation, an aliquot (200 μl) was transferred to a glass insert and centrifuged at 10,000g and 37°C for 20 min to separate any solid material from the solution. The supernatant was transferred to a new HPLC vial and analyzed by LC-MS/MS.

The nature of series [2]: In vivo pharmacokinetics, plasma and brain. On the set-up: species or system mice. As to the method:
Brains were collected and snap-frozen. Blood was sampled from the cervical vein upon decapitation in Eppendorf tubes containing 50 μl of 0.5 M EDTA and immediately centrifuged for 10 min at 3000g and 4°C. Isolated plasma was then transferred into clean polypropylene tubes. All samples were stored at −20°C before analysis.
Brains were weighed and homogenized 1:3 (w/v) in PBS using a Minilys Bead Homogenizer (Bertin Instruments). […] Samples were precipitated with acetonitrile (1:4) containing warfarin as analytical internal standard. The supernatants were injected into the LC-MS/MS system consisting of a TQ-S micro mass spectrometer coupled to an Acquity UPLC (Waters Corp, MA, USA). […] The obtained concentrations of brain homogenate samples were multiplied by 4 to account for the dilution during preparation of the homogenate. Pharmacokinetic parameters were determined from the experimental data by applying non-compartmental analysis using Microsoft Excel spreadsheet. The brain-to-plasma partition coefficient (Kp,brain) was calculated as the ratio of the area under the concentration–time curves (AUC) in brain versus plasma (AUCbrain/AUCplasma).

The target in a further series is T2, 5-HT1D receptor (Homo sapiens, UniProt P28221).
T2 construct: TANGO fusion module (own knowledge, Kroeze et al.: C-terminal V2 tail, TEV site and tTA); 1000000068; host or cells: HTLA (HEK293-derived)
Kind of series: PRESTO-TANGO β-arrestin recruitment. Type of series: cell-based. The procedure:
as §1

T1 sequence (P14416 whole entry, the tested form may be a part): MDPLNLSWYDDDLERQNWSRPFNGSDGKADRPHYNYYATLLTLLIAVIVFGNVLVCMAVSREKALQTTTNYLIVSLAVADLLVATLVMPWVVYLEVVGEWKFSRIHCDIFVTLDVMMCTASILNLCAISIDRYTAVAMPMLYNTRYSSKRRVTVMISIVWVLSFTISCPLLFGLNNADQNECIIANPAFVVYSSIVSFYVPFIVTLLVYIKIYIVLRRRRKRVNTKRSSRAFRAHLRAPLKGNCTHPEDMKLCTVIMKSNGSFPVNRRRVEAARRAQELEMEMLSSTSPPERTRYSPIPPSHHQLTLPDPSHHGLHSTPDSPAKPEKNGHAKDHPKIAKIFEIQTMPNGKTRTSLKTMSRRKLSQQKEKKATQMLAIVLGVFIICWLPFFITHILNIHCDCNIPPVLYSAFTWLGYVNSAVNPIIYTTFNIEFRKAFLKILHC
T2 sequence (P28221 whole entry, the tested form may be a part): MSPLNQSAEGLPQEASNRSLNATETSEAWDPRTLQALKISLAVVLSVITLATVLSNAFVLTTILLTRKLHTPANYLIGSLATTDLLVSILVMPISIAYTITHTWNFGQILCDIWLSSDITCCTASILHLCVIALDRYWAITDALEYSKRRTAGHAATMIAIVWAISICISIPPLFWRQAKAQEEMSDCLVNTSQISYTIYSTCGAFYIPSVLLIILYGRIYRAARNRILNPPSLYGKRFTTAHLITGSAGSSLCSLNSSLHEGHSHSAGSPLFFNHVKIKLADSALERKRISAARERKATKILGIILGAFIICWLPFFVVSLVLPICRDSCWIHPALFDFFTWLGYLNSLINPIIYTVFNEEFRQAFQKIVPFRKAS

With `CC1=C(c2ccco2)CNCC1` [Compound 65], on D2 receptor (concentration-response curves), the half-maximal effective concentration (EC50) is over 1000 nM and the Emax was determined as 59%. Also, at D2 receptor (panel screen), the “agonism at the D2 receptor” value is on record as “agonism”. Also, the “intrinsic clearance CLint” value in series [1] was 16 μl/min per mg. In addition, in the series “Thermodynamic solubility”, the solubility at 24 h amounted to 50 mM (≈ 8160 µg/mL). Also, in series [2] (after intraperitoneal administration, 1 mg/kg, mice, estimated), the Clearance is reported as 225 ml/min per kg. The “brain concentration by 4 hours” value in series [2] (below lower limit of quantification, mice, i.p. 1 mg/kg) is recorded as under 40 pmol/g. In addition, the partition ratio (Kp) in series [2] (male, C57BL/6, mouse, brain and plasma, intraperitoneal, 1 mg/kg, total concentrations, AUCbrain/AUCplasma, read-out: brain-to-plasma partition coefficient Kp,brain) is 7.9. This compound displayed a half-life in series [2] (male, C57BL/6, mouse, ip, plasma, mice, intraperitoneal 1 mg/kg) of 17 min. In series [2] (male, C57BL/6, mouse, plasma, ip, below lower limit of quantification, mice, i.p. 1 mg/kg), this compound returned a concentration at 4 h of under 5 nM. In series [2] (male, C57BL/6, mouse, plasma, ip, mice, intraperitoneal 1 mg/kg, read-out: maximum plasma concentration (Cmax)), the Cmax turned out to be 850 ± 172 nM. Further, the Tmax in series [2] (male, C57BL/6, mouse, plasma, ip, mice, intraperitoneal 1 mg/kg, read-out: time to maximum plasma concentration) was at most 5 min. In addition, in series [2] (mice, intraperitoneal 1 mg/kg), the “maximum concentration in brain” value stood at 4707 ± 766 pmol/g, the “time to maximum brain concentration” value is given as at most 5 min and the “volume of distribution (V)” value stood at 6.3 L/kg. At 5-HT1D receptor, this compound registered an EC50 of over 1000 nM and a maximal effect (Emax) of 75%. Further, the “agonism at the 5-HT1D receptor” value at 5-HT1D receptor (panel screen) is recorded as “agonism”.
